≈ marks a conversion by molar mass, not a printed value. Where “and” joins values, the source holds several entries; their conditions need not be identical. Equal values may be shown once. Read-outs that look alike come from different tables or passages of the source.
Assays:
[1] = molecular target: T1, MMNAT (Mycobacterium marinum, UniProt B2HIZ6); assay: ESI-MS analysis of covalent enzyme-inhibitor adducts; assay type: binding, M. marinum; details: enzyme-to-inhibitor ratio 1∶1; for Δm of enzyme-inhibitor adduct (MMNAT): 24°C, 30–60 min; for Molar ratio (inhibitor/protein) (MMNAT): proposed number of inhibition species bound per protein molecule
T1 sequence (B2HIZ6 entry or part of it): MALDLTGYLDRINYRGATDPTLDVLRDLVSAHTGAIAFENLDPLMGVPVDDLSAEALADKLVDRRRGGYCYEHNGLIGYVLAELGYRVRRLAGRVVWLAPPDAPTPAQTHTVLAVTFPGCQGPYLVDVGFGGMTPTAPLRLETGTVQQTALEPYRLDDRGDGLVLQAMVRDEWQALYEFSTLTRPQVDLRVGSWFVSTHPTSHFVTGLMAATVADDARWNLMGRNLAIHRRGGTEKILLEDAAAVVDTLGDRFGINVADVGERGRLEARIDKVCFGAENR
Experimental: ESI-MS was performed as described previously. A sample of 2.5 mg/mL (80 µM) MMNAT was analyzed on a Micromass LCT mass spectrometer. The samples were pretreated with DMSO or 0.08–1.2 mM inhibitor dissolved in DMSO to a final percentage of 5% (v/v) DMSO and incubated for 30–60 min before analysis. ESI-MS analysis was performed in positive ion mode after denaturation in 50% v/v acetonitrile in water with an accuracy of ±0.1%. The sample was run over a desalting column prior to MS analysis.

[2] = molecular target: T1, MMNAT; assay: Reversibility of inhibition by dialysis; assay type: biochemical, M. marinum; details: 15-fold molar excess, 1 h at 24°C, dialysis 16 h at 4°C
Experimental: (§1) Figure 3 Reversibility of the inhibition of TBNAT and MMNAT by compound 1. Each enzyme (MMNAT, TBNAT, 0.07 mM, 50 µL) was preincubated either alone or with 15-fold molar excess 1 at 24°C for 1 h. Each sample was then dialysed against 1 L fresh assay buffer (20 mM Tris-HCl pH 8) at 4°C for 16 h. The enzyme activities of the samples were measured before dialysis and then measured after dialysis by measuring the rate of Ac-CoA hydrolysis in the presence of HLZ as described in Methods. The mean ± S.D. of three measurements of the activity is shown. Loss of enzyme activity upon dialysis is likely to be due to the oxidation of the active site sulfhydryl group, especially since dialysis was performed in the absence of dithiothreitol.
(§2) For the reversibility studies, excess inhibitor was […] by dialysis. Each enzyme (0.07 mM MMNAT or TBNAT in 20 mM Tris-HCl pH 8 and 5% (v/v) DMSO) was preincubated either alone or with 15-fold molar excess of compound 1 in a final volume of 50 µL at 24°C for 1 h. Each sample was then dialysed against 1 L fresh assay buffer (20 mM Tris-HCl pH 8) at 4°C for 16 h. The enzyme activities of the samples were measured before dialysis and then measured after dialysis by measuring the rate of Ac-CoA (120 µM) hydrolysis in the presence of 150 µM HLZ.

[3] = molecular target: T2, TBNAT (Mycobacterium tuberculosis, UniProt P9WJI5); assay: NAT-inhibition assay (Ac-CoA hydrolysis with hydralazine, Ellman's reagent); assay type: biochemical, M. tuberculosis; details: for inhibition at 50 µM: read-out: TBNAT % Inhibition; for IC50: mean ± S.D.
T2 construct: made in house
T2 sequence (P9WJI5 whole entry): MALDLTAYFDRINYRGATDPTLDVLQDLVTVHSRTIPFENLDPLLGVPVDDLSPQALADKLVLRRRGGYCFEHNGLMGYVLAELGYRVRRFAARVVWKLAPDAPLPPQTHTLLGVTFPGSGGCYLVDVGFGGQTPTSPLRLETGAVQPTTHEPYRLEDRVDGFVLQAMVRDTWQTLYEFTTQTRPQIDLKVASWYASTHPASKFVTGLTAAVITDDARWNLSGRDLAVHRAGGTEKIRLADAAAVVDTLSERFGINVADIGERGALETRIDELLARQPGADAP
Experimental: (§3) An assay for measuring the formation of CoA was used to determine the activity of the enzyme in the presence of potential inhibitors. All the tested compounds were dissolved in dimethylsulphoxide (DMSO) and all reactions were carried out in the presence of 5% (v/v) DMSO. The enzyme (100–150 ng) was mixed with the inhibitors 1–5 (5 µL at a final concentration of 0–250 µM) and incubated for 15 min at 24°C prior to starting the reaction by adding 15 µL hydralazine and 12 µL Ac-CoA at final concentrations of 150 µM and 120 µM respectively, in a final total volume of 100 µL of 20 mM Tris-HCl pH 8. The assay was performed as an end-point read out measurement by stopping the reaction after 10 min at 24°C using 25 µL Ellman's reagent (5 mM 5,5′-dithiobis-(2-nitrobenzoate) solution in 6.4 M guanidine-HCl and 100 mM Tris-HCl, pH 7.3). The absorbance was measured at a wavelength of 405 nm within 2 min (Tecan Sunrise Plate Reader). The assays were repeated using a 10-fold enzyme concentration to exclude promiscuous non-specific inhibitors. The activity of the enzyme in the presence of 5% (v/v) DMSO was measured as a control. Inhibition values were determined as the ratio of the enzyme activity (expressed as the rate of CoA formation per microgram protein (µM/min.µg)) with the requisite compound, to the activity of the control without inhibitor. IC50 values were determined from the inhibition curves which were obtained by non-linear fitting of the % inhibition and the inhibitor concentration (µM) using the Log(inhibitor) vs. response module of GraphPad Prism 5.0.

[4] = system: M. tuberculosis H37Rv; assay: Mycobacterial growth inhibition in vitro (spot culture on solid medium); assay type: cell-based; details: for MIC: Mycobacterium tuberculosis, H37RV, 336 h, read-out: MIC M. tuberculosis; for MIC M. tuberculosis: H37Rv, solid 7H10-OADC medium, no growth after 2 weeks
[5] = molecular target: T2, TBNAT; assay: Reversibility of inhibition by dialysis; assay type: biochemical, M. tuberculosis; details: 15-fold molar excess, 1 h at 24°C, dialysis 16 h at 4°C
Experimental: as §1, §2

[6] = molecular target: T1, MMNAT; assay: Time-dependent inhibition assay (Kitz and Wilson model); assay type: biochemical, M. marinum; details: 24°C
Experimental: The time course of the inhibition of NAT by the piperidinols was evaluated according to the Kitz and Wilson model. Irreversible inhibition, progressive with time, was measured for the piperidinol inhibitors (1–5) by the protocol described in Figure S2, and the values of the apparent first order constant (kobs) were determined (Table 1). Dilution rather than dialysis was used in this protocol due to the likely loss of activity upon dialysis (Figure 3). […] Examples of the curves obtained for enzyme activity against incubation time upon inhibition of MMNAT and TBNAT by the piperidinols are shown in Figure 4.
For the determination of the time dependence of interaction between enzymes and inhibitors, the inhibitor was diluted to less than 1% concentration. Incubation mixtures (20 µL) contained 0.06 mM MMNAT or TBNAT in 20 mM Tris-HCl, pH 8 and 5% (v/v) DMSO and variable concentrations of the inhibitors (0–50 µM) were prepared using the protocol described in Figure S1. Aliquots of 1 µL were removed from the reaction mixture at different time points (incubation-time) and diluted to 100 µL using the assay buffer containing HLZ and Ac-CoA to the final concentrations of 150 µM and 120 µM, respectively. The rate of Ac-CoA hydrolysis was measured over a three-minute time period. The reaction was stopped with 25 µL Ellman's reagent in 6.4 M guanidine and the absorbance was measured at a wavelength of 405 nm. The residual activity was measured as a percentage of a control prepared as described in Figure S1 and plotted against the incubation-time. The data were fitted using the Semilog line (X is linear, Y is Log) module of GraphPad Prism 5.0. The slope of each line is equivalent to (−kobs/2.303) at each inhibitor concentration.The controls in which no enzyme was present using CoA and Ellman's reagent gave the same results whether compound 1 was present or not.

[7] = molecular target: T2, TBNAT; assay: ESI-MS analysis of covalent enzyme-inhibitor adducts; assay type: binding, M. tuberculosis
[8] = molecular target: T1, MMNAT; assay: NAT-inhibition assay (Ac-CoA hydrolysis with hydralazine, Ellman's reagent); assay type: biochemical, M. marinum; details: for inhibition at 50 µM: read-out: MMNAT % Inhibition; for IC50: mean ± S.D.
Experimental: as §3

[9] = system: M. tuberculosis; parameters: method as in PMID 13402115; details: cited from earlier work
[10] = molecular target: T3, hamster NAT2 (shNAT2) (Mesocricetus auratus, UniProt P50293); assay: Specificity panel of recombinant NAT enzymes (Ac-CoA hydrolysis with 5ASA); assay type: biochemical; details: 30 µM
T3 construct: made in house
T3 sequence (P50293 1-290): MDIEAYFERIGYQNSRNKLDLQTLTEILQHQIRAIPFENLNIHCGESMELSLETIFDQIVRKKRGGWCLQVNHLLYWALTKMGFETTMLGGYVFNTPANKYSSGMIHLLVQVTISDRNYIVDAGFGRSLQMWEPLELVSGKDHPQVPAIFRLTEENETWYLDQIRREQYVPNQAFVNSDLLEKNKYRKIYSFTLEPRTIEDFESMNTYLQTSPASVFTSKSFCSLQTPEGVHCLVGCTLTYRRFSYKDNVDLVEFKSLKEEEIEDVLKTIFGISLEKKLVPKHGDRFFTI
Experimental: (§4) Figure 2 Specificity of compound 1 for prokaryotic NAT enzymes. Compound 1 was tested at 30 µM against pure recombinant NAT enzymes from M. smegmatis (MSNAT), P. aeruginosa (PANAT), S. typhimurium (STNAT), MMNAT and TBNAT, and also against two eukaryotic enzymes, hamster NAT2 (shNAT2) and human NAT1. The results are shown as the mean ± S.D. of triplicate determinations of the percentage inhibition of hydrolysis of Ac-CoA in the presence of 5-aminosalicylic acid (5ASA) and against TBNAT using hydralazine as a substrate. The inhibition is represented as a percentage compared to an uninhibited control from triplicate measurements. The structure of compound 1 is shown and the piperidinol nucleus is highlighted by the shaded area.

[11] = molecular target: T4, human NAT1 (Homo sapiens, UniProt P18440); assay: as above; assay type: biochemical; details: 30 µM
T4 construct: made in house
T4 sequence (P18440 1-290): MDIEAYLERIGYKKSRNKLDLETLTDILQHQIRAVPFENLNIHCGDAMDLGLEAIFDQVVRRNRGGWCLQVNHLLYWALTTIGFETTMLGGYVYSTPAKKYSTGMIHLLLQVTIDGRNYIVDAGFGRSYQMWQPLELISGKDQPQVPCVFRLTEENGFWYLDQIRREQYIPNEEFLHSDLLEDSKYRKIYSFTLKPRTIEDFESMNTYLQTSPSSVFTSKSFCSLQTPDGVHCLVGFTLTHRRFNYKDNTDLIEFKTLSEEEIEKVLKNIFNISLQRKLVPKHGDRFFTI
Experimental: as §4

[12] = system: M. bovis BCG; assay: microbe, parasite or virus in culture; assay type: cell-based; details: for MIC: Mycobacterium tuberculosis variant bovis BCG, BCG, 336 h, read-out: MIC M. bovis BCG; for MIC M. bovis BCG: solid 7H10-OADC medium, no growth after 2 weeks
[13] = parameters: method as in PMID 16032973; details: cited from earlier work
[14] = system: NAT; assay: Inhibition of NAT activity by PVK; assay type: biochemical; details: within 10 minutes, at less than 1 µM
[15] = 50 µM inhibitor, 150 µM HLZ, 120 µM Ac-CoA, 24°C, mean ± S.D. of triplicate
[16] = 150 µM HLZ, 120 µM Ac-CoA, 24°C

SMILES	Δm of enzyme-inhibitor adduct (MMNAT) [1]	Molar ratio (inhibitor/protein) (MMNAT) [1]	inhibition at 50 µM [3, 15]	IC50 [3, 16]	MIC [4]	MMNAT kobs ([6]; inhibitor at 11.9 µM)	inhibition at 50 µM [8, 15]	IC50 [8, 16]	MIC [12]	TBNAT % Inhibition [3, 15]	MIC M. tuberculosis [4]	MMNAT % Inhibition [8, 15]	MIC M. bovis BCG [12]	other results
CN1CCC(O)(c2ccccc2)C(C(=O)c2ccccc2)C1 (centres unmarked) [compound 1, (4-hydroxy-1-methyl-4-phenylpiperidin-3-yl)(phenyl)methanone]	132 Da and 132.6 Da	1	101 ± 1%	7700 ± 900 nM	3.4 to 16.9 µM (≈ 1 to 4.99 µg/mL)	9±2 10^−3 min^−1	105 ± 1%	1300 nM	21.3 to 42.3 µM (≈ 6.29 to 12.5 µg/mL)	–	–	–	–	restoration of enzyme activity by dialysis (MMNAT) [2]: completely ineffective in restoring the activity; restoration of enzyme activity by dialysis (TBNAT) [5]: completely ineffective in restoring the activity; Molar ratio (inhibitor/protein) (TBNAT) ([7]; enzyme-to-inhibitor ratio 1∶15, proposed number of inhibition species bound per protein molecule): 1 and 2; minimum inhibitory concentration (MIC) against M. tuberculosis ([9]; conversion of the µg/mL value): ~17 µM (≈ 5.02 µg/mL); minimum inhibitory concentration (MIC) against M. tuberculosis ([9]; reported over 50 years ago): less than 5 µg/mL; inhibition of eukaryotic NAT (hamster NAT2) [10]: did not show significant inhibition; inhibition of eukaryotic NAT (human NAT1) [11]: did not show significant inhibition
CN(CCC(=O)c1ccccc1)CCC(=O)c1ccccc1 [compound 5]	132 Da and 129.7 Da	1	–	1200 ± 100 nM	–	34±2 10^−3 min^−1	–	140 ± 20 nM	–	101±2%	3.4 to 16.9 µM	101±2%	21.3 to 42.3 µM	toxicity compared to the cyclic piperidinol [13]: greater toxicity
O=C(c1ccccc1)C1CN(C2CCCCC2)CCC1(O)c1ccccc1 (centres unmarked) [compound 3]	132 Da and 131.5 Da	1	–	4400 ± 100 nM	2.8 to 13.8 µM (≈ 1.02 to 5.02 µg/mL)	–	–	–	17.3 to 34.4 µM (≈ 6.29 to 12.5 µg/mL)	–	–	–	–	inhibition at 50 µM [3]: 72 ± 60%; MMNAT kobs ([6]; inhibitor at 5.9 µM): 573±18 10^−3 min^−1; inhibition at 50 µM [8]: 103 ± 1%
C=CC(=O)c1ccccc1 [PVK, phenyl vinyl ketone, reference compound]	132 Da	1	–	–	–	–	–	–	–	–	–	–	–	inhibition of the NAT activity [14]: 100%; mass difference of enzyme adduct (TBNAT) ([7]; ratio not stated): 132
CN1CCC(O)(c2ccc(Cl)cc2)C(C(=O)c2ccc(Cl)cc2)C1 (centres unmarked) [compound 2]	164 Da and 164.3 Da	1	–	1600 ± 100 nM	–	110±2 10^−3 min^−1	–	160 ± 10 nM	–	98±1%	2.7 to 13.7 µM	103±2%	17.3 to 34.3 µM	–
CC1(C)CC(N2CCC(O)(c3ccccc3)C(C(=O)c3ccccc3)C2)CC(C)(C)N1 (centres unmarked) [compound 4]	132 Da and 130.5 Da	1	67 ± 4%	1100 ± 300 nM	2.3 to 11.7 µM (≈ 0.967 to 4.92 µg/mL)	586±115 10^−3 min^−1	100 ± 2%	2700 ± 400 nM	14.8 to 29.3 µM (≈ 6.22 to 12.3 µg/mL)	–	–	–	–	–

Source: article PMC3532304, “Piperidinols That Show Anti-Tubercular Activity as Inhibitors of Arylamine N-Acetyltransferase: An Essential Enzyme for Mycobacterial Survival Inside Macrophages” (PLoS ONE, 2012)
